From US20060058329A1, “Pyrazole inhibitors of the transforming growth factor” (priority 2003, published 2006)

Experiments:
[1] = tested on: TGF-β signalling (PAI-1 promoter-luciferase in HepG2 cells); test: Cellular transcriptional assay (PAI-1 promoter luciferase reporter, TGF-β stimulated); settings: for IC50: Homo sapiens, HepG2, read-out: TGF-β cellular activity (IC50)
Experimental: Assay 1 (Cellular Transcriptional Assay)
The assay was performed in HepG2 cells stably transfected with the PAI-1 promoter (known to be a strong TGF-β responsive promoter) linked to a luciferase (firefly) reporter gene. The compounds were selected on their ability to inhibit luciferase activity in cells exposed to TGF-β. In addition, cells were transfected with a second luciferase (Renilla) gene which was not driven by a TGF-β responsive promoter and was used as a toxicity control.
96 well microplates were seeded, using a multidrop apparatus, with the stably transfected cell line at a concentration of 35000 cells per well in 200 μl of serum-containing medium. These plates were placed in a cell incubator.
18 to 24 hours later (Day 2), cell-incubation procedure was launched. Cells were incubated with TGF-β and a candidate compound at concentrations in the range 50 nM to 10 μM (final concentration of DMSO 1%). The final concentration of TGF-β (rhTGFβ-1) used in the test was 1 ng/mL. […] The final volume of the test reaction was 150 μl. Each well contained only one candidate compound and its effect on the PAI-1 promoter was monitored.
Columns 11 and 12 were employed as controls. Column 11 contained 8 wells in which the cells were incubated in the presence of TGF-β, without a candidate compound. Column 11 was used to determine the ‘reference TGF-β induced firefly luciferase value’ against which values measured in the test wells (to quantify inhibitory activity) were compared. In wells A12 to D12, cells were grown in medium without TGF-β. […]
12 to 18 hours later (day 3), the luciferase quantification procedure was launched. […] Following agitation (15 to 30 mins), luciferase activities of the plates were read in a dual-injector luminometer (BMG lumistar). For this purpose, 50 μl of luciferase assay reagent and 50 μL of ‘Stop & Glo’ buffer were injected sequentially to quantify the activities of both luciferases. […] For each of the compounds tested, a concentration response curve was constructed from which an IC50 value was determined graphically.

[2] = target: T1, recombinant GST-ALK5 (residues 198-503) (Homo sapiens, UniProt P36897); test: Alk5 fluorescence polarization assay; assay type: binding; settings: rhodamine green-labelled ligand 1 nM, ALK5 10 nM, read-out: ALK5 receptor modulator activity (IC50)
T1 construct: recombinant GST-ALK5 (residues 198-503)
T1 sequence (P36897 198-503): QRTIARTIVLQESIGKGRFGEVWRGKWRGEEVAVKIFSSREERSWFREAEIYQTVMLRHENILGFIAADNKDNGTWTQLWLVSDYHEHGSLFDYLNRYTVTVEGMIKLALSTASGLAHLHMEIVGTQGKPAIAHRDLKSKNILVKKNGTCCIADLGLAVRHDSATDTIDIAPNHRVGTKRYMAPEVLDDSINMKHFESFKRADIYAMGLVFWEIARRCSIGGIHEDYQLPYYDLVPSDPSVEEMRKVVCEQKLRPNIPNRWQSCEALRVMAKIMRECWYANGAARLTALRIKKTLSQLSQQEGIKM
Experimental: Assay 2 (Alk5 Fluorescence Polarization Assay)
Kinase inhibitor compounds conjugated to fluorophores, can be used as fluorescent ligands to monitor ATP competitive binding of other compounds to a given kinase. The increase in depolarization of plane polarized light, caused by release of the bound ligand into solution, is measured as a polarization/anisotropy value. This protocol details the use of a rhodamine green-labelled ligand for assays using recombinant GST-ALK5 (residues 198-503).
Assay buffer components: 62.5 mM Hepes pH 7.5 (Sigma H-4034), 1 mM DTT (Sigma D-0632), 12.5 mM MgCl2 (Sigma M-9272), 1.25 mM CHAPS (Sigma C-3023). […]
ALK5 was added to assay buffer containing the above components and 1 nM of the rhodamine green-labelled ligand so that the final ALK5 concentration was 10 nM based on active site titration of the enzyme. […] The plates were read immediately on a LJL Acquest fluorescence reader (Molecular Devices, serial number AQ1048) with excitation, emission, and dichroic filters of 485 nm, 530 nm, and 505 nm, respectively. The fluorescence polarization for each well was calculated by the Acquest reader and then imported into curve fitting software for construction of concentration response curves. The normalized response was determined relative to the high controls (1 μl DMSO in column 12, rows A-D) and the low controls (1 μl of control compound in column 12, rows E-H). […]

| IC50 [1] | IC50 [2] | melting point | SMILES | firefly and renilla luciferase activities, relative to those obtained in column 11 (TGF-β only) ([1]; 500 μM CPO in the presence of TGF-β, toxicity control) |
| --- | --- | --- | --- | --- |
| – | – | – | O=C1C=CCC1 [CPO, Cyclopentenone, reference compound] | around 50% |
| 34 nM | 5 nM | – | Cc1cccc(-c2n[nH]cc2-c2ccnc(-c3ccc(OCc4cn(C)cn4)cc3)c2)n1 [Example 1, 2-{4-[(1-methyl-1H-imidazol-4-yl)methoxy]phenyl}-4-[3-(6-methylpyridin-2-yl)-1H-pyrazol-4-yl]pyridine] | – |
| – | – | 126 °C | CCN1CCN(C(=O)c2ccc(-c3cc(-c4[nH]ncc4-c4cccc(C)n4)ccn3)cc2)CC1 [Example 19, 3-[2-(4-((1-ethyl-piperazin-4-yl)carbonyl)phenyl)pyridin-4-yl]-4-[6-methylpyridin-2-yl]-1H-pyrazole] | – |
| 38 nM | 17 nM | 96 °C | Cc1cccc(-c2cn[nH]c2-c2ccnc(-c3ccc(OCCN4CCCC4)cc3)c2)n1 [Example 22, 3-[2-(4-(2-(pyrolidin-1-yl)ethoxy)phenyl)pyridin-4-yl]-4-[6-methylpyridin-2-yl]-1H-pyrazole] | – |
| – | – | 170 °C | Cc1cccc(-c2cn[nH]c2-c2ccnc(-c3ccc(OCC(=O)N4CCOCC4)cc3)c2)n1 [Example 23, 3-[2-(4-((morpholin-4-yl)carbonylmethyloxy)phenyl)pyridin-4-yl]-4-[6-methylpyridin-2-yl]-1H-pyrazole] | – |
